Measured values: patent US20230174584A1, “Antibiotic Compounds” (priority 2019, published 2023)
≈ marks a conversion by molar mass, not a printed value.

Legend:
[1] = tested on: S. aureus 880 (BR-VRSA), NR-49120; assay: MIC assay; format: cell-based, Staphylococcus aureus; conditions: S. aureus 880, NR-49120 VRSA
Procedure: (§1) The antibacterial activity of the compounds was tested against a panel of bacteria, including Gram-positive bacteria (S. aureus ATCC29213, S. aureus USA300, S. aureus LIM-2, NR-45881, S. aureus HIP13419, NR-46413, E. faecium E155, E. faecium E7314, E. faecium E980, E. faecalis E1246, E. faecalis E7406 and S. pneumonia 153). The antibacterial activity of the compounds was further tested against S. aureus NY-155, NR-46236, S. aureus HIP12864, NR-46074, S. aureus 880 (BR-VRSA), NR-49120, E. faecalis E1246, E. faecalis E7604, as well as some Gram-negative bacteria (Escherichia coli and Klebsiella pneumoniae). Minimum inhibitory concentrations (MICs) in μg/mL were performed according to the CLSI guidelines. From glycerol stocks, bacterial strains were cultured on blood agar plates and incubated at 37° C. for 18 h. A single colony was transferred to tryptic soy broth (TSB) with 0.002% polysorbate 80 (p80). For the Enterococcus, VISA and VRSA strains, the cultures were grown at 37° C. until the optical density of the suspension reached a level equivalent to the 0.5 McFarland standard. The bacterial suspensions were diluted in TSB with 0.002% p80 to reach a bacterial cell density of 10^6 CFU/mL. In case of the other (vancomycin-sensitive) S. aureus strains, the direct colony suspension method was used. For these strains, after transfer of the colonies to TSB with 0.002% p80, they were immediately diluted to 10^6 CFU/mL, instead of incubated prior to this dilution. In the case of S. pneumonia, direct colony suspension was used by immediately suspending multiple colonies from fresh blood agar plates in TSB+0.002% p80 to an OD600 of 0.5 and subsequent dilution to 10^6 CFU mL^−1 in TSB+0.002% p80+5% lysed horse blood. Antibiotic dilutions for this strains were also made in TSB+0.002% p80+5% lysed horse blood. Both agar and microplates containing S. pneumonia were incubated at 37° C. with 5% CO2 for 24 h with constant shaking (600 rpm). […] The cultures were grown to exponential phase (OD600=0.5) at 37° C. […] In polypropylene 96-well microtiter plates, test compounds were added in biological triplicates and serial diluted 2-fold by transfer and mixing from one well to the next to achieve a final volume of 50 μL per well. An equal volume of bacterial suspension (10^6 CFU mL^−1) was added to the wells. The plates were sealed with breathable membranes and incubated at 37° C. for 24 h with constant shaking (600 rpm). In polypropylene microtiter plates, 100 μL of the test compounds was added to the first row in biological triplicates, and 50 μL of media was added to the other wells. The compounds were subjected to serial dilution by transfer and mixing of 50 μL from one well to the next. Subsequently, 50 μL of bacterial suspension (10^6 CFU/mL) was added to the wells. The plates were sealed with breathable membranes and incubated at 37° C. for 24 h with constant shaking (600 rpm). Positive growth control consisted of wells with bacterial suspension and without antibiotic. Negative growth control consisted of solely media without bacterial suspension or antibiotic. The MICs were determined from the median of a minimum of triplicates.

[2] = tested on: S. aureus ATCC29213; assay: MIC assay; format: cell-based, Staphylococcus aureus; conditions: S. aureus ATCC29213 MSSA
Procedure: as §1

[3] = tested on: S. aureus HIP12864, NR-46074; assay: MIC assay; format: cell-based, Staphylococcus aureus; conditions: S. aureus HIP12864, NR-46074 VISA
Procedure: as §1

[4] = tested on: S. aureus LIM-2, NR-25881; assay: MIC assay; format: cell-based, Staphylococcus aureus; conditions: S. aureus LIM-2, NR-25881 VISA
Procedure: as §1

[5] = tested on: S. aureus NY-155, NR-46236; assay: MIC assay; format: cell-based, Staphylococcus aureus; conditions: S. aureus NY-155, NR-46236 MRSA
Procedure: as §1

[6] = tested on: S. aureus HIP13419, NR-46413; assay: microbe, parasite or virus in culture; format: cell-based, Staphylococcus aureus; conditions: S. aureus HIP13419, NR-46413 VRSA
Procedure: as §1

[7] = tested on: S. aureus USA300; assay: microbe, parasite or virus in culture; format: cell-based, Staphylococcus aureus
Procedure: as §1

[8] = tested on: E. faecium E980; assay: MIC assay; format: cell-based, Enterococcus faecium; conditions: E. faecium E980 VSE
Procedure: as §1

[9] = tested on: E. faecium E155; assay: microbe, parasite or virus in culture; format: cell-based, Enterococcus faecium; conditions: E. faecium E155 VRE (VanA)
Procedure: as §1

[10] = tested on: E. faecium E7314; assay: microbe, parasite or virus in culture; format: cell-based, Enterococcus faecium; conditions: E. faecium E7314 VRE (VanB)
Procedure: as §1

[11] = tested on: E. faecalis E1246; assay: MIC assay; format: cell-based, Enterococcus faecalis
Procedure: as §1

[12] = tested on: E. faecalis E7406; assay: microbe, parasite or virus in culture; format: cell-based, Enterococcus faecalis; conditions: E. faecalis E7406 VRE (VanB)
Procedure: as §1

[13] = tested on: E. faecalis E7604; assay: microbe, parasite or virus in culture; format: cell-based, Enterococcus faecalis; conditions: E. faecalis E7604 VRE (vanB)
Procedure: as §1

[14] = tested on: S. pneumoniae 153; assay: MIC assay; format: cell-based; conditions: S. pneumoniae 153; TSB+0.002% p80+5% lysed horse blood
Procedure: as §1

[15] = tested on: MRSA USA300; assay: MIC assay in the presence of sheep serum; format: cell-based, Staphylococcus aureus; conditions: MRSA USA300, TSB + 0.002% p80 + 50% sheep serum
Procedure: as §1
The activity of the compounds was further assessed against MRSA USA300 strain in the presence of sheep) serum in another MIC assay. The cultures that grew in the presence of serum used TSB+0.002% P80+50% sheep serum as growth media, as opposed to normal MICs done in only TSB+0.002% P80.

[16] = E. faecalis E1246 VRE (VanA), Table 7
[17] = E. faecalis E1246 VRE (vanA), Table 9

Compound	MIC [1] [µg/mL]	MIC [2] [µg/mL]	MIC [3] [µg/mL]	MIC [4] [µg/mL]	MIC [5] [µg/mL]	MIC [6] [µg/mL]	MIC ([7]; MRSA USA300, TSB + 0.002% p80) [µg/mL]	MIC ([7]; S. aureus USA300 MRSA) [µg/mL]	MIC [8] [µg/mL]	MIC [9] [µg/mL]	MIC [10] [µg/mL]	MIC [11, 16] [µg/mL]	MIC [11, 17] [µg/mL]	MIC [12] [µg/mL]	MIC [13] [µg/mL]	MIC [14] [µg/mL]	MIC [15] [µg/mL]
CCCCN(CCCC)C(N)=Nc1ccc(CN[C@@]2(C)C[C@H](O[C@H]3[C@H](Oc4c5cc6cc4Oc4ccc(cc4Cl)[C@@H](O)[C@@H](NC(=O)[C@@H](CC(C)C)NC)C(=O)N[C@@H](CC(N)=O)C(=O)N[C@H]6C(=O)N[C@H]4C(=O)N[C@H](C(=O)N[C@H](C(=O)O)c6cc(O)cc(O)c6-c6cc4ccc6O)[C@H](O)c4ccc(c(Cl)c4)O5)O[C@H](CO)[C@@H](O)[C@@H]3O)O[C@@H](C)[C@H]2O)cc1 [Compound 11]	64 (≈ 37.5 µM)	0.125 (≈ 0.0732 µM)	1 (≈ 0.585 µM)	0.5 (≈ 0.293 µM)	0.063 (≈ 0.0369 µM)	16 (≈ 9.36 µM)	0.125	0.125 (≈ 0.0732 µM)	0.0625 (≈ 0.0366 µM)	32 (≈ 18.7 µM)	0.5 (≈ 0.293 µM)	>128	>128	8 (≈ 4.68 µM)	8 (≈ 4.68 µM)	0.063 (≈ 0.0369 µM)	0.063
CCCCCCCCCCNC(N)=Nc1ccc(CN[C@@]2(C)C[C@H](O[C@H]3[C@H](Oc4c5cc6cc4Oc4ccc(cc4Cl)[C@@H](O)[C@@H](NC(=O)[C@@H](CC(C)C)NC)C(=O)N[C@@H](CC(N)=O)C(=O)N[C@H]6C(=O)N[C@H]4C(=O)N[C@H](C(=O)N[C@H](C(=O)O)c6cc(O)cc(O)c6-c6cc4ccc6O)[C@H](O)c4ccc(c(Cl)c4)O5)O[C@H](CO)[C@@H](O)[C@@H]3O)O[C@@H](C)[C@H]2O)cc1 [Compound 8]	0.25 (≈ 0.144 µM)	0.01562 (≈ 0.00899 µM)	0.062 (≈ 0.0357 µM)	0.016 (≈ 0.00921 µM)	≤0.008	0.063 (≈ 0.0363 µM)	0.063	0.0625 (≈ 0.036 µM)	0.01562 (≈ 0.00899 µM)	0.25 (≈ 0.144 µM)	≤0.007812	1 (≈ 0.576 µM)	1 (≈ 0.576 µM)	≤0.007812	≤0.008	≤0.008	0.125
CCCCCCCCCCCCNC(N)=Nc1ccc(CN[C@@]2(C)C[C@H](O[C@H]3[C@H](Oc4c5cc6cc4Oc4ccc(cc4Cl)[C@@H](O)[C@@H](NC(=O)[C@@H](CC(C)C)NC)C(=O)N[C@@H](CC(N)=O)C(=O)N[C@H]6C(=O)N[C@H]4C(=O)N[C@H](C(=O)N[C@H](C(=O)O)c6cc(O)cc(O)c6-c6cc4ccc6O)[C@H](O)c4ccc(c(Cl)c4)O5)O[C@H](CO)[C@@H](O)[C@@H]3O)O[C@@H](C)[C@H]2O)cc1 [Compound 9]	0.25 (≈ 0.142 µM)	0.125 (≈ 0.0708 µM)	0.25 (≈ 0.142 µM)	0.5 (≈ 0.283 µM)	0.5 (≈ 0.283 µM)	0.125 (≈ 0.0708 µM)	0.5	0.5 (≈ 0.283 µM)	0.125 (≈ 0.0708 µM)	0.125 (≈ 0.0708 µM)	0.03125 (≈ 0.0177 µM)	1 (≈ 0.567 µM)	1 (≈ 0.567 µM)	0.0625 (≈ 0.0354 µM)	0.063 (≈ 0.0357 µM)	≤0.008	1
CN[C@H](CC(C)C)C(=O)N[C@H]1C(=O)N[C@@H](CC(N)=O)C(=O)N[C@H]2C(=O)N[C@H]3C(=O)N[C@H](C(=O)N[C@H](C(=O)O)c4cc(O)cc(O)c4-c4cc3ccc4O)[C@H](O)c3ccc(c(Cl)c3)Oc3cc2cc(c3O[C@@H]2O[C@H](CO)[C@@H](O)[C@H](O)[C@H]2O[C@H]2C[C@](C)(NCc3ccc(N=C(N)NCC45CC6CC(CC(C6)C4)C5)cc3)[C@H](O)[C@H](C)O2)Oc2ccc(cc2Cl)[C@H]1O [Compound 18]	2 (≈ 1.15 µM)	≤0.008	≤0.016	0.016 (≈ 0.00917 µM)	≤0.008	2 (≈ 1.15 µM)	≤0.008	≤0.008	≤0.008	2 (≈ 1.15 µM)	≤0.008	16 (≈ 9.17 µM)	16 (≈ 9.17 µM)	≤0.008	≤0.008	≤0.008	0.031
CN[C@H](CC(C)C)C(=O)N[C@H]1C(=O)N[C@@H](CC(N)=O)C(=O)N[C@H]2C(=O)N[C@H]3C(=O)N[C@H](C(=O)N[C@H](C(=O)O)c4cc(O)cc(O)c4-c4cc3ccc4O)[C@H](O)c3ccc(c(Cl)c3)Oc3cc2cc(c3O[C@@H]2O[C@H](CO)[C@@H](O)[C@H](O)[C@H]2O[C@H]2C[C@](C)(NCc3ccc(N=C(N)NC45CC6CC(CC(C6)C4)C5)cc3)[C@H](O)[C@H](C)O2)Oc2ccc(cc2Cl)[C@H]1O [Compound 17]	8 (≈ 4.62 µM)	0.016 (≈ 0.00924 µM)	≤0.016	0.125 (≈ 0.0722 µM)	0.031 (≈ 0.0179 µM)	8 (≈ 4.62 µM)	0.031	0.031 (≈ 0.0179 µM)	≤0.008	8 (≈ 4.62 µM)	0.016 (≈ 0.00924 µM)	16 (≈ 9.24 µM)	16 (≈ 9.24 µM)	0.125 (≈ 0.0722 µM)	0.125 (≈ 0.0722 µM)	0.016 (≈ 0.00924 µM)	0.125
